Key:
[1] = test system: P30-OHK (B-Lymphoblastic Leukemia); test: combination Emax (second highest fraction inhibited in the dose matrix, 72 h); higher = more inhibition; extreme values may be limits of the assay
Summary of the method: (§1)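 Cell lines in DMEM/F12 or RPMI with 10% FBS were plated in 1536-well plates, held 24 hours at 37°C, 5% CO2, then given two-drug dose matrices for 72 hours (DMSO typically 0.2%). Viability was read by CellTiter-Glo 2.0 luminescence and scaled as inhibition from 0 (vehicle wells) to 1 (blank wells). Combination Emax is the second-highest inhibition in the matrix; Bliss excess is observed combination effect minus expected EA + EB − EA·EB, EA and EB being single-agent effects.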

[2] = test system: NMC-G1 (Low Grade Glioma); test: as above
Summary of the method: as §1

[3] = test system: MOLP-8 (Plasma Cell Myeloma); test: as above
Summary of the method: as §1

[4] = test system: NCI-H1963 (Small Cell Lung Carcinoma); test: Bliss excess, mean over the matrix (fraction); higher = more synergy
Summary of the method: as §1

[5] = test system: RCC-JW (Kidney Carcinoma); test: as above
Summary of the method: as §1

[6] = test system: NCI-H3118 (Head and Neck Carcinoma); test: as above
Summary of the method: as §1

KALS-1 (Glioblastoma) = test: as above
Summary of the method: as §1

[7] = test system: LCLC-103H (Non-Small Cell Lung Carcinoma); test: as above
Summary of the method: as §1

[8] = test system: MS-1 (Small Cell Lung Carcinoma); test: as above
Summary of the method: as §1

[9] = test system: NCI-H1341 (Small Cell Lung Carcinoma); test: as above
Summary of the method: as §1

[10] = test system: SNU-407 (Colorectal Carcinoma); test: as above
Summary of the method: as §1

[11] = test system: SAT (Head and Neck Carcinoma); test: as above
Summary of the method: as §1

[12] = test system: NMC-G1 (Low Grade Glioma); test: as above
Summary of the method: as §1

[13] = test system: SNU-C2B (Colorectal Carcinoma); test: as above
Summary of the method: as §1

[14] = test system: SKG-IIIa (Cervical Carcinoma); test: as above
Summary of the method: as §1

[15] = test system: CL-11 (Colorectal Carcinoma); test: as above
Summary of the method: as §1

[16] = test system: MOLT-13 (T-Lymphoblastic Leukemia); test: as above
Summary of the method: as §1

[17] = test system: TUR (Acute Myeloid Leukemia); test: as above
Summary of the method: as §1

UACC-257 (Melanoma) = test: as above
Summary of the method: as §1

[18] = test system: NCI-H596 (Other Solid Carcinomas); test: as above
Summary of the method: as §1
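For Bliss excess, mean over the matrix in this document: after 72 h of two-drug dosing.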

SMILES	combination Emax [1]	combination Emax [2]	combination Emax [3]	Bliss excess [4]	Bliss excess [5]	Bliss excess [6]	Bliss excess (KALS-1 (Glioblastoma))	Bliss excess [7]	Bliss excess [8]	Bliss excess [9]	Bliss excess [10]	Bliss excess [11]	Bliss excess [12]	Bliss excess [13]	Bliss excess [14]	Bliss excess [15]	Bliss excess [16]	Bliss excess [17]	Bliss excess (UACC-257 (Melanoma))	Bliss excess [18]
CN(C)CCCOc1ccc(-c2ccc3ncc4c(c3c2)n(C2CCOCC2)c(=O)n4C)cn1 [AZD0156] + C=CCn1c(=O)c2cnc(Nc3ccc(N4CCN(C)CC4)cc3)nc2n1-c1cccc(C(C)(C)O)n1 [AZD1775] (first compound max 1 µM, partner max 1 µM)	0.678	0.264	0.721	-0.0147	-0.061	-0.0933	0.0014	-0.0079	-0.0301	-0.0201	-0.0136	-0.0388	-0.0467	-0.0328	-0.0565	-0.0547	0.0227	0.0088	-0.0223	0.0029
CN(C)CCCOc1ccc(-c2ccc3ncc4c(c3c2)n(C2CCOCC2)c(=O)n4C)cn1 [AZD0156] + CCN(CCO)CCCOc1ccc2c(Nc3cc(CC(=O)Nc4cccc(F)c4)[nH]n3)ncnc2c1 [AZD2811] (first compound max 1 µM, 7x7, partner max 1 µM)	0.834	0.126	0.603	-0.0463	-0.0243	-0.0316	-0.0245	-0.0395	0.0331	0.005	-0.0247	-0.0362	-0.0855	-0.0227	-0.05	-0.0288	0.0392	0.0563	-0.039	-0.005
CN(C)CCCOc1ccc(-c2ccc3ncc4c(c3c2)n(C2CCOCC2)c(=O)n4C)cn1 [AZD0156] + C[C@@H]1COCCN1C2=NC(=NC(=C2)C3(CC3)[S@](=N)(=O)C)C4=C5C=CNC5=NC=C4 [AZD6738] (first compound max 1 µM, 7x7, partner max 10 µM)	0.877	0.269	0.848	0.0086	-0.0531	-0.0235	-0.0032	-0.0352	0.0279	0.0309	-0.0322	-0.0116	-0.0603	0.0183	-0.0555	-0.0265	0.0472	0.0261	-0.0338	-0.009
C=CCn1c(=O)c2cnc(Nc3ccc(N4CCN(C)CC4)cc3)nc2n1-c1cccc(C(C)(C)O)n1 [AZD1775] + C[C@@H]1COCCN1C2=NC(=NC(=C2)C3(CC3)[S@](=N)(=O)C)C4=C5C=CNC5=NC=C4 [AZD6738] (first compound max 1 µM, partner max 10 µM)	0.943	0.451	0.854	0.036	0.0571	0.0218	0.0058	0.0108	0.0322	0.0723	0.0031	-0.0229	-0.0028	-0.0212	-0.0378	-0.0047	0.0735	0.0657	0.0398	0.0323
C=CCn1c(=O)c2cnc(Nc3ccc(N4CCN(C)CC4)cc3)nc2n1-c1cccc(C(C)(C)O)n1 [AZD1775] + O=C(c1cc(Cc2n[nH]c(=O)c3ccccc23)ccc1F)N1CCN(C(=O)C2CC2)CC1 [Olaparib] (first compound max 1 µM, partner max 10 µM)	0.748	0.431	0.754	-0.0252	-0.0005	-0.0301	-0.0611	-0.0334	-0.0094	-0.0236	-0.0364	-0.0474	-0.0352	0.0056	-0.0648	-0.0099	0.021	0.0029	-0.0197	-0.0963
CCN(CCO)CCCOc1ccc2c(Nc3cc(CC(=O)Nc4cccc(F)c4)[nH]n3)ncnc2c1 [AZD2811] + C=CCn1c(=O)c2cnc(Nc3ccc(N4CCN(C)CC4)cc3)nc2n1-c1cccc(C(C)(C)O)n1 [AZD1775] (first compound max 1 µM, partner max 1 µM)	0.846	0.254	0.76	-0.0448	-0.0118	-0.0798	-0.0307	0.0066	-0.0205	0.0747	-0.015	0.033	-0.0847	-0.0602	-0.0142	0.0034	0.0166	0.117	-0.032	0.0114
CCN(CCO)CCCOc1ccc2c(Nc3cc(CC(=O)Nc4cccc(F)c4)[nH]n3)ncnc2c1 [AZD2811] + C[C@@H]1COCCN1C2=NC(=NC(=C2)C3(CC3)[S@](=N)(=O)C)C4=C5C=CNC5=NC=C4 [AZD6738] (first compound max 1 µM, 7x7, partner max 10 µM)	0.928	0.372	0.791	-0.0777	-0.0203	-0.0682	-0.038	-0.119	-0.0585	0.0028	-0.094	-0.0581	-0.117	-0.0581	-0.0409	-0.0488	-0.0075	0.019	-0.0649	-0.0056
CCN(CCO)CCCOc1ccc2c(Nc3cc(CC(=O)Nc4cccc(F)c4)[nH]n3)ncnc2c1 [AZD2811] + O=C(c1cc(Cc2n[nH]c(=O)c3ccccc23)ccc1F)N1CCN(C(=O)C2CC2)CC1 [Olaparib] (first compound max 1 µM, 7x7, partner max 10 µM)	0.848	0.318	0.434	-0.0623	-0.0021	0.0075	0.0144	-0.0275	0.0107	0.0125	-0.0292	-0.0469	-0.025	-0.014	-0.0286	0.0084	-0.0146	0.0637	-0.0322	-0.0372
CN(CCO)CC[C@H](CSc1ccccc1)Nc1ccc(S(=O)(=O)NC(=O)c2ccc(N3CCC([C@@H](O)c4ccccc4-c4ccc(Cl)cc4)CC3)cc2)cc1S(=O)(=O)C(F)(F)F [AZD4320] + C1CN(CCC1(C(=O)N[C@@H](CCO)C2=CC=C(C=C2)Cl)N)C3=NC=NC4=C3C=CN4 [Capivasertib] (first compound max 1 µM, 7x7, partner max 3 µM)	0.992	0.507	0.254	0.0172	-0.0559	-0.0476	-0.0039	-0.0548	-0.0037	-0.0203	-0.0633	-0.0363	-0.0838	-0.0305	-0.0318	-0.0496	-0.0371	-0.0062	-0.0405	-0.0509
CN(CCO)CC[C@H](CSc1ccccc1)Nc1ccc(S(=O)(=O)NC(=O)c2ccc(N3CCC([C@@H](O)c4ccccc4-c4ccc(Cl)cc4)CC3)cc2)cc1S(=O)(=O)C(F)(F)F [AZD4320] + C[C@@H]1COCCN1C2=NC(=NC(=C2)C3(CC3)[S@](=N)(=O)C)C4=C5C=CNC5=NC=C4 [AZD6738] (first compound max 1 µM, 7x7, partner max 10 µM)	1	0.876	0.787	0.0129	-0.0862	0.0076	-0.0784	-0.0362	-0.0085	-0.0017	-0.0568	–	-0.0724	-0.0292	-0.0302	0.0073	-0.0057	-0.014	-0.0663	-0.047
Cc1c2c(nn1C)CSCc1cc(n(C)n1)CSc1cc(c3ccccc3c1)OCCCc1c(C(=O)O)n(C)c3c-2c(Cl)ccc13 [AZD5991] + CCN(CCO)CCCOc1ccc2c(Nc3cc(CC(=O)Nc4cccc(F)c4)[nH]n3)ncnc2c1 [AZD2811] (first compound max 1 µM, 7x7, partner max 1 µM)	0.963	0.305	1	-0.0088	0.0024	0.0796	-0.0294	-0.0421	0.0123	0.0493	-0.034	0.101	0.0152	0.0057	0.0203	-0.021	0.0028	0.121	–	-0.102
Cc1c2c(nn1C)CSCc1cc(n(C)n1)CSc1cc(c3ccccc3c1)OCCCc1c(C(=O)O)n(C)c3c-2c(Cl)ccc13 [AZD5991] + C[C@@H](Nc1cc(F)cc(F)c1)c1cc(C(=O)N(C)C)cc2c(=O)cc(N3CCOCC3)oc12 [AZD8186] (first compound max 1 µM, 7x7, partner max 3 µM)	0.805	0.224	1	0.0155	0.0126	-0.0161	0.012	0.0125	-0.0481	0.0352	-0.0139	-0.0731	-0.059	-0.0337	-0.0411	-0.0377	-0.0116	0.0047	-0.0234	–
C[C@@H]1COCCN1c1cc(C2([S@](C)(=N)=O)CC2)nc(-c2ccnc3[nH]ccc23)n1 [AZD6738] + O=C(c1cc(Cc2n[nH]c(=O)c3ccccc23)ccc1F)N1CCN(C(=O)C2CC2)CC1 [Olaparib] (first compound max 10 µM, 7x7, partner max 10 µM)	–	0.392	0.794	0.0725	0.0465	-0.0038	0.0028	0.0482	0.0056	-0.0105	-0.0323	0.0019	0.0071	0.0123	0.0236	0.0013	0.0645	0.0244	-0.0009	-0.0841
CCc1c2c(nc3ccc(O)cc13)-c1cc3c(c(=O)n1C2)COC(=O)[C@]3(O)CC [SN-38] + O=C(c1cc(Cc2n[nH]c(=O)c3ccccc23)ccc1F)N1CCN(C(=O)C2CC2)CC1 [Olaparib] (first compound max 0.3 µM, 7x7, partner max 10 µM)	0.99	0.246	0.783	0.099	0.112	0.106	0.069	0.0352	0.0551	0.0698	–	0.0387	-0.0071	0.0556	0.0602	0.0626	0.0811	0.0429	0.0213	–
